# Experimental data as given in BindingDB's records for doi:10.7270/Q2JQ0ZDS (Sanford-Burnham Center for Chemical Genomics, 2009).
# “And” between values parts separate entries of the source, which are not always exact repeats. Equal values may be shown once. Where a name gives a salt, the structure may show the parent alone.
# Target: Intestinal-type alkaline phosphatase (Homo sapiens, UniProt P09923)
# Test: human IAP enzyme inhibitors, dose response, biochemical, luminescence (AID 1017)
# Conditions: not given
# Intestinal-type alkaline phosphatase, sequence (P09923 whole entry, looked up): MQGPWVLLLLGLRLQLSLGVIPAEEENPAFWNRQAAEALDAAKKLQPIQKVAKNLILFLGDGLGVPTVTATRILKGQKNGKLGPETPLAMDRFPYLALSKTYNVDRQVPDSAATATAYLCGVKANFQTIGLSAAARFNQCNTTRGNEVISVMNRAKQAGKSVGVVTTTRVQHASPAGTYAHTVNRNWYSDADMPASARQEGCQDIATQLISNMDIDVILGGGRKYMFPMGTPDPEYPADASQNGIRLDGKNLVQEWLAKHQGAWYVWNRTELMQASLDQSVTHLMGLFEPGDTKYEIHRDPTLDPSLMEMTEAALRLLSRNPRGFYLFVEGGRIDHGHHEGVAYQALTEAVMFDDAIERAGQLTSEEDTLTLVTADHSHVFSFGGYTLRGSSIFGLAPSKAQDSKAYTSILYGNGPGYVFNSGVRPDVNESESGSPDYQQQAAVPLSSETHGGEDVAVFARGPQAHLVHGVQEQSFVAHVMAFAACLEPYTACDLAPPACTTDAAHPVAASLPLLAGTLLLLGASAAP
row,SMILES,IC50
1,CCOC(=O)c1cc(-c2ccc3c(c2)OCCO3)n[nH]1,> 100 µM
2,COc1ccc(-c2[nH]nc3oc(=O)cc(C)c23)cc1,> 100 µM
3,COC(=O)c1cc(-c2ccc(Br)cc2)n[nH]1,> 100 µM
4,COC(=O)c1cc(-c2ccc(C)cc2C)n[nH]1,> 100 µM
5,COC(=O)c1cc(-c2ccc(Cl)cc2Cl)n[nH]1,> 100 µM
6,COc1ccc(OC)c(S(=O)(=O)Nc2cnc3ccccc3c2)c1,> 100 µM
7,"COc1ccc(-n2nnnc2SCC(=O)c2ccc(O)c(O)c2)cc1 [1-(3,4-dihydroxyphenyl)-2-(1-(4-methoxyphenyl)-1H-tetrazol-5-ylthio)ethanone]",4.35 µM
8,"O=C(Cn1ccnc1)c1ccc(O)c(O)c1 [1-(3,4-dihydroxyphenyl)-2-(1-imidazolyl)ethanone;hydrochloride]",30.2 µM and 18.5 µM
9,"CCc1nccn1CC(=O)c1ccc(O)c(O)c1 [1-(3,4-dihydroxyphenyl)-2-(2-ethyl-1-imidazolyl)ethanone;hydrochloride]",> 100 µM
10,"Cc1cc(C)nc(SCC(=O)c2ccc(O)c(O)c2)n1 [1-(3,4-dihydroxyphenyl)-2-(4,6-dimethylpyrimidin-2-ylthio)ethanone]",49.5 µM
11,"Cc1cnn(CC(=O)c2ccc(O)c(O)c2)c1 [1-(3,4-dihydroxyphenyl)-2-(4-methyl-1H-pyrazol-1-yl)ethanone]",53.3 µM
12,"O=C(CNc1ccncc1)c1ccc(O)c(O)c1 [1-(3,4-dihydroxyphenyl)-2-(4-pyridylamino)ethanone]",> 100 µM
13,"Cc1ccc(-n2nnnc2SCC(=O)c2ccc(O)c(O)c2)cc1 [1-(3,4-dihydroxyphenyl)-2-[1-(4-methylphenyl)tetrazol-5-yl]sulfanylethanone]",3.36 µM
14,"C=CCn1c(SCC(=O)c2ccc(O)c(O)c2)nnc1-c1cccnc1 [1-(3,4-dihydroxyphenyl)-2-[(4-prop-2-enyl-5-pyridin-3-yl-1,2,4-triazol-3-yl)sulfanyl]ethanone]",40.4 µM
15,"C=CCn1c(SCC(=O)c2ccc(O)c(O)c2)nnc1-c1cccc(OC)c1 [1-(3,4-dihydroxyphenyl)-2-[[5-(3-methoxyphenyl)-4-prop-2-enyl-1,2,4-triazol-3-yl]sulfanyl]ethanone]",13.1 µM
16,"COc1ccc(OC)c(S(=O)(=O)Nc2cccnc2)c1 [2,5-Dimethoxy-N-(pyridin-3-yl)benzenesulfonamide]",> 100 µM
17,"Cc1cc(C)nc(SCC(=O)c2ccc(O)cc2)n1 [2-(4,6-dimethylpyrimidin-2-ylthio)-1-(4-hydroxyphenyl)ethanone]",> 100 µM
18,"COc1ccc(C(=O)CSc2nc(C)cc(C)n2)cc1 [2-(4,6-dimethylpyrimidin-2-ylthio)-1-(4-methoxyphenyl)ethanone]",> 100 µM
19,COc1ccc(C)cc1S(=O)(=O)Nc1cccnc1 [2-Methoxy-5-methyl-N-(pyridin-3-yl)benzenesulfonamide],> 100 µM
20,COc1ccc(C)cc1S(=O)(=O)Nc1cnc2ccccc2c1 [2-Methoxy-5-methyl-N-(quinolin-3-yl)benzenesulfonamide],> 100 µM
21,"CCn1c(CSc2nc3ccccc3s2)nnc1SCC(=O)c1ccc(O)c(O)c1 [2-[[5-(1,3-benzothiazol-2-ylsulfanylmethyl)-4-ethyl-1,2,4-triazol-3-yl]sulfanyl]-1-(3,4-dihydroxyphenyl)ethanone]",> 100 µM
22,COc1ccc(C)cc1S(=O)(=O)Nc1ccc2ccccc2c1 [2-methoxy-5-methyl-N-(2-naphthalenyl)benzenesulfonamide],> 100 µM
23,CCOc1ccc(Cl)cc1S(=O)(=O)Nc1cccnc1 [5-chloro-2-ethoxy-N-(pyridin-3-yl)benzenesulfonamide],> 100 µM
24,COc1cc(C)c(Cl)cc1S(=O)(=O)Nc1cccnc1 [5-chloro-2-methoxy-4-methyl-N-(pyridin-3-yl)benzenesulfonamide],> 100 µM
25,"O=C1Nc2ccccc2C1C=NCCc1ccc(O)c(O)c1 (configuration not stated) [(3E)-3-[[2-(3,4-dihydroxyphenyl)ethylamino]methylene]oxindole]",9.95 µM
26,COC(=O)c1cc(-c2ccc(OC)cc2)[nH]n1 [MLS-0091975.0001],> 100 µM
27,CCOC(=O)c1cc(-c2ccc(Cl)cc2)n[nH]1 [MLS-0111582.0001],> 100 µM
28,CCc1nnc(SCC(=O)c2ccc(O)c(O)c2)[nH]1 [MLS-0315685.0001],1.27 µM
29,CCCCOc1ccc(-c2cc(C(=O)OC)[nH]n2)cc1 [methyl 3-(4-butoxyphenyl)-1H-pyrazole-5-carboxylate],> 100 µM

# Continued, values first:
row,IC50,SMILES
1,5.32 µM,O=C(CSc1nnc(-c2ccccc2)[nH]1)c1ccc(O)c(O)c1
2,> 100 µM,O=C1c2ccccc2C(=O)C1c1nc2ccccc2[nH]1
3,> 100 µM,O=C1c2c(Cl)c(Cl)c(Cl)c(Cl)c2C(=O)N1c1nnc(CCc2ccccc2)[nH]1
4,40.7 µM,"O=C(O)c1ccc2c(c1)C(=O)N(c1nc(-c3cccnc3)n[nH]1)C2=O [1,3-dioxo-2-(5-pyridin-3-yl-1H-1,2,4-triazol-3-yl)isoindole-5-carboxylic acid]"
5,> 100 µM,"Cc1nc2ccccc2n1CC(=O)c1ccc(O)c(O)c1 [1-(3,4-dihydroxyphenyl)-2-(2-methyl-1-benzimidazolyl)ethanone;hydrochloride]"
6,> 100 µM,"Cn1c(SCC(=O)c2ccc(O)c(O)c2)nnc1-c1ccccc1 [1-(3,4-dihydroxyphenyl)-2-(4-methyl-5-phenyl-4H-1,2,4-triazol-3-ylthio)ethanone]"
7,10.1 µM,"C=CCn1c(SCC(=O)c2ccc(O)c(O)c2)nnc1-c1ccccc1 [1-(3,4-dihydroxyphenyl)-2-[(5-phenyl-4-prop-2-enyl-1,2,4-triazol-3-yl)sulfanyl]ethanone]"
8,> 3.13 µM,"COc1ccccc1-c1nc(SCC(=O)c2ccc(O)c(O)c2)n[nH]1 [1-(3,4-dihydroxyphenyl)-2-[[5-(2-methoxyphenyl)-1H-1,2,4-triazol-3-yl]sulfanyl]ethanone]"
9,> 6.25 µM and 20.7 µM,"C=CCn1c(SCC(=O)c2ccc(O)c(O)c2)nnc1-c1ccccc1OC [1-(3,4-dihydroxyphenyl)-2-[[5-(2-methoxyphenyl)-4-prop-2-enyl-1,2,4-triazol-3-yl]sulfanyl]ethanone]"
10,> 100 µM,"O=C(CSc1nnc(-c2ccccc2)[nH]1)c1ccc(O)cc1O [1-[2,4-bis(oxidanyl)phenyl]-2-[(5-phenyl-1H-1,2,4-triazol-3-yl)sulfanyl]ethanone]"
11,> 100 µM,"O=C(CSc1nnc(-c2ccccc2Cl)[nH]1)c1ccc(O)c(O)c1 [1-[3,4-bis(oxidanyl)phenyl]-2-[[5-(2-chlorophenyl)-1H-1,2,4-triazol-3-yl]sulfanyl]ethanone]"
12,> 100 µM,"O=C1c2ccccc2C(=O)N1c1nncs1 [2-(1,3,4-thiadiazol-2-yl)isoindole-1,3-dione]"
13,14.8 µM,"O=C(Cn1cnc2ccccc21)c1ccc(O)c(O)c1 [2-(1-benzimidazolyl)-1-(3,4-dihydroxyphenyl)ethanone;hydrochloride]"
14,> 100 µM,"O=C1c2ccccc2C(=O)N1c1nnc[nH]1 [2-(1H-1,2,4-triazol-5-yl)isoindole-1,3-dione]"
15,0.11 µM and 0.157 µM,"Oc1c2c(c(O)n1-c1nnc(-c3ccccc3)[nH]1)CC=CC2 [2-(5-Phenyl-2H-[1,2,4]triazol-3-yl)-3a,4,7,7a-tetrahydro-isoindole-1,3-dione]"
16,43.4 µM,O=C(O)c1cc(-c2ccccc2Cl)n[nH]1 [3-(2-chlorophenyl)-1H-pyrazole-5-carboxylic acid]
17,> 10 µM,"O=C1c2c(Cl)c(Cl)c(Cl)c(Cl)c2C(=O)N1c1nnc[nH]1 [4,5,6,7-tetrachloro-2-(1H-1,2,4-triazol-5-yl)isoindole-1,3-dione]"
18,> 100 µM,Cn1nc(C(=O)O)cc1-c1ccc(F)cc1 [5-(4-fluorophenyl)-1-methyl-3-pyrazolecarboxylic acid]
19,> 100 µM,Cn1nc(-c2ccc(F)cc2)cc1C(=O)O [5-(4-fluorophenyl)-2-methyl-3-pyrazolecarboxylic acid]
20,> 100 µM,"O=C(c1[nH]nc2c1COc1ccccc1-2)N1CCCC1 [(2,4-dihydrochromeno[4,3-c]pyrazol-3-yl)(pyrrolidin-1-yl)methanone]"
21,0.539 µM and 0.922 µM,Oc1c2c(c(O)n1-c1nnc(Cc3ccccc3)[nH]1)CC=CC2 [MLS000100008]
22,> 100 µM,Cc1cc(=O)oc2n[nH]c(-c3ccccc3)c12 [MLS-0013971.0001]
23,> 100 µM,Oc1cc(-c2cccc3ccccc23)[nH]n1 [MLS-0067141.0001]
24,> 100 µM,COC(=O)c1cc(-c2ccc3ccccc3c2)[nH]n1 [MLS-0111546.0001]
25,> 100 µM,O=C1c2c(Cl)c(Cl)c(Cl)c(Cl)c2C(=O)N1c1nc(Cc2ccccc2)n[nH]1 [MLS-0146263.0001]
26,> 100 µM,COc1ccc2c(c1OC)C(=O)N(c1nnc(SC)[nH]1)C2=O [MLS-0146265.0001]
27,> 100 µM,COC(=O)c1cc(-c2ccccc2)n[nH]1 [methyl 3-phenyl-1H-pyrazole-5-carboxylate]

# Same assay, conditions: inactive by the depositor's call
row,IC50,SMILES
1,32.8 µM,"CCn1c(SCC(=O)c2ccc(O)c(O)c2)nnc1-c1ccccc1 [1-(3,4-Dihydroxy-phenyl)-2-(4-ethyl-5-phenyl-4H-[1,2,4]triazol-3-ylsulfanyl)-ethanone]"
